# Source: patent publication US12492197B2, “3,5-disubstituted pyrazole compounds as kinase inhibitors and uses thereof” (IMPACT THERAPEUTICS (SHANGHAI), INC, priority 2019, dated 2025)
# Tests used:
# [1] = tested on: human breast cancer cell HCC1806; test: Proliferation of HCC1806 cells, MTT assay; format: cell-based; details: HCC1806, 72 h, 3 days treatment, read-out: IC50 (inhibition of proliferation of HCC1806)
# Method: Newly revived HCC1806 cells (purchased from Guangzhou Genio) were cultured and passaged for at least three generations before use. Cells were used at 90% confluency for experiments. Cells were digested with trypsinase and centrifuged at 800 rpm for 5 minutes. The cell pellets were resuspended in fresh RPMI1640 medium and cells were counted. Cells were seeded on 96-well cell culture plates at 2000 cells/well and incubated overnight at 37° C., 5% CO2. The stock solutions of the test substances (including the test compounds and the reference compound) were serially diluted to 8 concentrations with DMSO at a ratio of 1:3. Five μL of each of the serially diluted solutions were added to 120 μL of medium (diluted by 25 times) and mixed by shaking. […] The cell culture plates were returned to incubator at 37° C., 5% CO2 for 3 days. At the end of treatment the cell viability was determined by MTT colorimetric assay. Cell culture medium in each well was replaced by 100 μL/well of serum-free fresh medium containing MTT (0.5 mg/mL), and the culture was continued for additional 4 hours.
# (§1) Data was analyzed by GraphPad Prism 6.0. The inhibitory effects of compounds on cell proliferation were plotted based on cell viability vs. the logarithm of compound concentration. Cell viability %=(ODcompound−ODbackground)/(ODDMSO−ODbackground)×100.
# [2] = tested on: human colon cancer cell LoVo; test: Proliferation of LoVo cells, MTT assay; format: cell-based; details: 96 h, 4 days treatment, read-out: IC50 (inhibition of proliferation of LoVo)
# Method: Newly revived LoVo cells (purchased from Shanghai Cell Institute) were cultured and passaged for at least three generations before use. Cells were used at 90% confluence for experiment. Cells were digested with trypsinase and centrifuged at 800 rpm for 5 minutes and the supernatant was discarded. The cell pellets were resuspended in fresh RPMI1640 medium and counted. Cells were seeded on 96-well cell culture plates at 5000 cells/well and incubated overnight at 37° C., 5% CO2. The stock solutions of the test substances (including the test compounds and the reference compound) were serially diluted to 8 concentrations with DMSO at a ratio of 1:3. 5 μL of each series diluted solutions was added to 120 μL of medium (diluted by 25 times) and mixed by shaking. […] The cell culture plates were returned to incubator at 37° C. and 5% CO2 for 4 days. At the end of treatment, the cell viability was determined by MTT colorimetric assay. Cell culture medium in each well was replaced by 100 μL/well of serum-free DMEM medium containing MTT (0.5 mg/mL), and the culture was continued for additional 4 hours. Medium was then discarded and 100 μL/well of DMSO was added.
# as §1
# [3] = target: T1, CHK1 kinase (Homo sapiens, UniProt O14757); test: CHK1 kinase inhibition, ADP-Glo kinase assay; format: biochemical; details: ATP 10 μM, CHK1 1 ng/well; for IC50: read-out: IC50 (inhibitory effect on CHK1 kinase activity); for inhibition at 0.01 µM: compound concentration 10 nM, read-out: Inh % (inhibitory effect on CHK1 kinase activity)
# T1 construct: purchased Promega V1941
# T1 sequence (O14757 1-476): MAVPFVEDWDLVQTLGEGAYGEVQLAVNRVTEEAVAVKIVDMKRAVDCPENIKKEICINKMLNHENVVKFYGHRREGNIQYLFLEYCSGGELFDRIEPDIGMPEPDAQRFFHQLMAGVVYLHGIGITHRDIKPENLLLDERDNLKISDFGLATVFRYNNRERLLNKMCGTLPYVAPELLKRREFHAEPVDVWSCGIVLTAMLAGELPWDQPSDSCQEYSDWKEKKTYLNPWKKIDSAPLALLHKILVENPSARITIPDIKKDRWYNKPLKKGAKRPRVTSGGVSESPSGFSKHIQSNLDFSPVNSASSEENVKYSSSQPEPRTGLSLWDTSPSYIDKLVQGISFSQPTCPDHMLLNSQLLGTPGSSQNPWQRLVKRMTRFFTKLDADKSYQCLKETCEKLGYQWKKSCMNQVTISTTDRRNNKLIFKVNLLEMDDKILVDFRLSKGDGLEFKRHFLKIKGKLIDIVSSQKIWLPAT
# Method: 2 μL of kinase CHK1 (#V1941, Promega), 1 μL of compound diluted with buffer, and 2 μL of ATP substrate was successively added to a 384-well plate (final concentration of CHK1 was 1 ng/well, ATP was 10 μM). The positive control wells contained CHK1, ATP and DMSO whereas the negative control wells contained ATP, DMSO without enzyme. The mixtures were centrifuged at 1000 rpm for 1 minute and kept in darkness at room temperature for 1 hour to react. Then, 5 μL of ADP-Glo reagent was added to each well and incubated at room temperature for 40 minutes. At the end of incubation, 10 μL of kinase detection reagent was added to each well, and the relative chemiluminescence values (RLU) were measured on Varioskan® Flash (Thermo). The following calculation was performed: Inhibition rate %=(RLU of positive control−RLU of compound)/(RLU of positive control−RLU of negative control)×100. Data were analyzed using GraphPad Prism6.0 and fitted using the curve equation: Y=Bottom+(Top-Bottom)/(1+10^((Log IC50−X)*HillSlope)), and IC50 values were calculated.
Structure (SMILES),IC50 [1] [nM],IC50 [2] [nM],IC50 [3] [nM],inhibition at 0.01 µM [3] [%]
"COc1cccc(OC[C@H]2CCCNC2)c1-c1cc(Nc2cnc(C#N)c(C)n2)n[nH]1 [Example 28, (S)-5-((5-(2-methoxy-6-(piperidin-3-ylmethoxy)phenyl)-1H-pyrazol-3-yl)amino)-3-methylpyrazine-2-carbonitrile]",42.2,42.5,0.3,–
"COc1cccc(OCC2CNC2)c1-c1cc(Nc2cnc(C#N)cn2)n[nH]1 [Example 31, 5-((5-(2-(azetidin-3-ylmethoxy)-6-methoxyphenyl)-1H-pyrazol-3-yl)amino)pyrazine-2-carbonitrile]",6.4,5.6,0.38,–
"COc1cccc(OC[C@H]2CCCN(C)C2)c1-c1cc(Nc2cnc(C#N)cn2)n[nH]1 [Example 32, (S)-5-((5-(2-methoxy-6-((1-methylpiperidin-3-yl)methoxy)phenyl)-1H-pyrazol-3-yl)amino)pyrazine-2-carbonitrile]",31.7,25.6,–,91
"COc1cccc(OC[C@H]2CCCCN2)c1-c1cc(Nc2cnc(C#N)cn2)n[nH]1 [Example 33, (R)-5-((5-(2-methoxy-6-(piperidin-2-ylmethoxy)phenyl)-1H-pyrazol-3-yl)amino)pyrazine-2-carbonitrile]",32.4,26,–,97
"COc1cccc(OC[C@H]2CCCOC2)c1-c1cc(Nc2cnc(C#N)cn2)n[nH]1 [Example 34, (S)-5-((5-(2-methoxy-6-((tetrahydro-2H-pyran-3-yl)methoxy)phenyl)-1H-pyrazol-3-yl)amino)pyrazine-2-carbonitrile]",102,64.9,–,69
"CCOc1cccc(OC[C@H]2CCCNC2)c1-c1cc(Nc2cnc(C#N)cn2)n[nH]1 [Example 35, (S)-5-((5-(2-ethoxy-6-(piperidin-3-ylmethoxy)phenyl)-1H-pyrazol-3-yl)amino)pyrazine-2-carbonitrile]",21.6,21.2,1.78,–
"COc1cc(F)cc(OC[C@H]2CCCNC2)c1-c1cc(Nc2cnc(C#N)cn2)n[nH]1 [Example 38, (S)-5-((5-(4-fluoro-2-methoxy-6-(piperidin-3-ylmethoxy)phenyl)-1H-pyrazol-3-yl)amino)pyrazine-2-carbonitrile]",3.5,3.2,0.52,–
"COc1cc(Cl)cc(OC[C@H]2CCCNC2)c1-c1cc(Nc2cnc(C#N)cn2)n[nH]1 [Example 40, (S)-5-((5-(4-chloro-2-methoxy-6-(piperidin-3-ylmethoxy)phenyl)-1H-pyrazol-3-yl)amino)pyrazine-2-carbonitrile]",5.5,6.6,0.88,–

# More lines, now with the values ahead:
IC50 [1] [nM],IC50 [2] [nM],IC50 [3] [nM],inhibition at 0.01 µM [3] [%],Structure (SMILES)
698,807,–,63,"CC(C)Oc1cccc(OC[C@H]2CCCNC2)c1-c1cc(Nc2cnc(C#N)cn2)n[nH]1 [Example 36, (S)-5-((5-(2-isopropoxy-6-(piperidin-3-ylmethoxy)phenyl)-1H-pyrazol-3-yl)amino)pyrazine-2-carbonitrile]"
30.5,28.8,0.77,–,"COc1c(F)ccc(OC[C@H]2CCCNC2)c1-c1cc(Nc2cnc(C#N)cn2)n[nH]1 [Example 37, (S)-5-((5-(3-fluoro-2-methoxy-6-(piperidin-3-ylmethoxy)phenyl)-1H-pyrazol-3-yl)amino)pyrazine-2-carbonitrile]"
1,1,0.2,–,"COc1cc(F)cc(OC[C@H]2CCNC2)c1-c1cc(Nc2cnc(C#N)cn2)n[nH]1 [Example 39, (S)-5-((5-(4-fluoro-2-methoxy-6-(pyrrolidin-3-ylmethoxy)phenyl)-1H-pyrazol-3-yl)amino)pyrazine-2-carbonitrile]"
4.4,5.1,0.85,–,"COc1cc(Br)cc(OC[C@H]2CCCNC2)c1-c1cc(Nc2cnc(C#N)cn2)n[nH]1 [Example 41, (S)-5-((5-(4-bromo-2-methoxy-6-(piperidin-3-ylmethoxy)phenyl)-1H-pyrazol-3-yl)amino)pyrazine-2-carbonitrile]"
